{"source": "paper PMC4717870", "about": "“Evaluation of fluoropyruvate as nucleophile in reactions catalysed by N-acetyl neuraminic acid lyase variants: scope, limitations and stereoselectivity” (Organic & Biomolecular Chemistry, 2015)", "molecular_target": "T1, S. aureus NAL (Staphylococcus aureus, UniProt Q2G160)", "T1 construct": "gene nanA; crystal structure", "T1 sequence (Q2G160 whole entry)": "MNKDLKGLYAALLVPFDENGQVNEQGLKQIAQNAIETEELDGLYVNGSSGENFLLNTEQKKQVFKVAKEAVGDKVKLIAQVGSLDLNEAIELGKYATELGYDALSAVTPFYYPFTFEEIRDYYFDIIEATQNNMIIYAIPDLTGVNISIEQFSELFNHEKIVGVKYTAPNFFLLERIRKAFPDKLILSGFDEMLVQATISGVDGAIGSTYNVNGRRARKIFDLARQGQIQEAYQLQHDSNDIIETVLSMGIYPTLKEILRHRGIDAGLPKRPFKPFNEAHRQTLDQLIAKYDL", "assay": "X-ray crystal structure of the complex", "format": "binding", "conditions": "covalent; Z-configured enamine observed in the active site"}
{"smiles": "O=C(O)C(=O)CF", "note": "[fluoropyruvate]", "values": [{"measurement": "X-ray crystal structure of the complex", "result": "the crystal structure of S. aureus NAL was determined in complex with fluoropyruvate"}]}
